# “Also recorded” adds a separate entry of the source. Read-outs that look alike come from different tables or passages of the source.
# Experiments:
# [1] = tested on: insulin-degrading enzyme (IDE); parameters: method as in PMID 22355395; details: towards insulin and β-amyloid, cited from earlier work
# [2] = ABTS radical scavenging assay; details: mean ± SD, three independent experiments
# Experimental: This method is based on the capacity of an antioxidant to scavenge the free radical ABTS^+ [50].
# Samples of each compound (5 μL) were added to 245 μL of ABTS solution. The reduction in the blue-green radical ABTS^+ by hydrogen-donating antioxidants was evaluated by measuring the absorbance at 734 nm (VANTAstar_BMG LABTECH GmbH, Ortenberg, Germany), after one minute of incubation. All the measurements were carried out at least three times.
# (§1) For each assay, the decrease in absorbance was used to calculate the antioxidant activity, which was expressed as the ability of the antioxidants to scavenge 50% of radical (EC50).
# Caco-2 cells = test: Cell viability MTT assay; type: cell-based, human; details: 1–30 μM, 24 h
# Experimental: Cells were treated with different concentrations of the compounds (1–30 μM) for 24 h and examined using the MTT assay.
# The cellular cytotoxicity of compounds was investigated using a 3-(4,5-dimethylthiazol-2-yl)-2,5-diphenyl-tetrazolium bromide (MTT) assay as previously reported, with minor modifications. The CaCo-2 were exposed for 24 h to compounds at concentrations ranging from […]. Then, MTT reagent (0.5 mg/mL in DMEM) was added to each well. The plate was incubated for 3 h at 37 °C. The MTT solution was removed from the culture plate, and 100 μL of DMSO solvent was added to solubilize the water-insoluble formazan crystals formed in the cells. The absorbance was determined at 570 nm using a microplate reader (VANTAstar_BMG LABTECH GmbH, Ortenberg, Germany).
# [3] = DPPH radical scavenging assay; details: mean ± SD, three independent experiments
# Experimental: Radical scavenging activity of the better derivatives was estimated according to the previously reported method with slight modification using the stable DPPH radical.
# A solution of 0.1 mM DPPH• radical was added to various concentrations of compounds. The reaction mixture was incubated in the dark for 15 min and, thereafter, the absorbance was recorded at 517 nm (VANTAstar_BMG LABTECH GmbH, Germany). The decrease in absorbance of DPPH•, after addition of test compounds compared to the control, was used to calculate the antioxidant activity.
# as §1
# α-glucosidase = α-glucosidase (Saccharomyces cerevisiae, UniProt P53341); test: biochemical; details: for inhibition at 50 µM: 0.25 h; for α-Glucosidase % inib. at 50 μM: 15 min
# Experimental: The α-glucosidase assay was performed as previously described. The enzyme from Saccharomyces cerevisiae (0.125 U/mL) solution was dissolved in 0.1 M sodium phosphate buffer (pH 6.8). Twenty microliters of test samples at various concentrations (0.005–50 μM) were mixed with the enzyme solution in microplate wells and incubated for 15 min at 37 °C. Subsequently, 20 μL of […] p-nitrophenyl α-D-glucopyranoside (pNPG) solution in 0.1 M phosphate buffer was added. After incubation at 37 °C for 15 min, the reaction was terminated by adding 50 μL of 0.2 M sodium carbonate solution. α-Glucosidase activity was determined spectrophotometrically at 405 nm on a 96-well microplate reader Fluostar (BMG LABTECH GmbH, Offenburg, Germany) by measuring the amount of p-nitrophenol released. DMSO control was used whenever required and the final concentration of DMSO was maintained below 8% v/v, which was found not to affect the enzyme activity. The IC50 values were determined by the interpolation of dose–response curves (Figure S2, Supplementary Material).
# (§2) The percentage of inhibition of enzyme activity, for both enzymes, was calculated as (%) by the following equation: A−B/A × 100, where A represents the difference in the absorbance of the control sample between an incubation time of 0 and 1.0 min, and B represents the test sample’s absorbance difference in the same time range.
# [4] = molecular target: T1, α-amylase from porcine pancreas (Sus scrofa, UniProt P00690); test: α-amylase inhibition assay (CNPG3 substrate); type: biochemical; details: 10 min, pH 7, mean ± SD, three independent assays, read-out: α-Amylase % inib. at 50 μM
# T1 construct: 40 μL of α-amylase from porcine pancreas (1 mg/mL) was used; from tissue; host or cells: porcine pancreas
# T1 sequence (P00690 16-511): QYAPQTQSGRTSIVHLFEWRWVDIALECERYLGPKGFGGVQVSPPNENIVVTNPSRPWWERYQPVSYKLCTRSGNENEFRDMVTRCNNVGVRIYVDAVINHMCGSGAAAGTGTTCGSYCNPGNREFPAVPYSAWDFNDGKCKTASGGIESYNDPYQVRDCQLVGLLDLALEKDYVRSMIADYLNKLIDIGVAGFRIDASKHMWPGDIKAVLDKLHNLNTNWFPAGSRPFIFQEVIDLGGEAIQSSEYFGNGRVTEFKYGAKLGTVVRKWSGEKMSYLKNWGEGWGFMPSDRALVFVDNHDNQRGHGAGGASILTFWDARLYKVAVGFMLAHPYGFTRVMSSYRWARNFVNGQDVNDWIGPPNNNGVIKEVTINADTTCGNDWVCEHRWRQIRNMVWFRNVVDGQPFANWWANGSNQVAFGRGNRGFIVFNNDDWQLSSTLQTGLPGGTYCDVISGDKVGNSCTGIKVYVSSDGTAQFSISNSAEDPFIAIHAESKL
# Experimental: The α-amylase assay was conducted as described in previous studies. A reaction mix containing 60 μL of […] sodium phosphate buffer at pH 7.0, 20 μL of 1 M NaCl and 40 μL of α-amylase from porcine pancreas (1 mg/mL) was used. The solution was incubated in the absence or presence of compounds at 37 °C for 10 min. After incubation, 80 μL of a 2.5 μM 2-chloro-4-nitrophenyl α-D-maltotrioside (CNPG3) solution was added as the substrate and 2-chloro-nitrophenol released by the enzymatic hydrolysis was monitored at 405 nm, using a microplate reader (Fluostar BMG LABTECH GmbH, Offenburg, Germany). The results of all the assays described above were expressed as a percentage of the blank control.
# as §2
# hPreP = tested on: hPreP; parameters: method as in PMID 24602793; details: cited from earlier work
# B. cereus = tested on: B. cereus; parameters: method as in PMID 22047695; details: cited from earlier work
# S. dysenteriae = details: cited from earlier work
# V. cholerae = details: cited from earlier work
# [5] = mean ± SD, three independent assays, read-out: α-Glucosidase IC50
# [6] = pH 6.8, 50 μM, mean ± SD, three independent assays, read-out: α-Glucosidase % inib. at 50 μM
# [7] = 50 μM, mean ± SD, three independent assays
# α-glucosidase, sequence (P53341 whole entry): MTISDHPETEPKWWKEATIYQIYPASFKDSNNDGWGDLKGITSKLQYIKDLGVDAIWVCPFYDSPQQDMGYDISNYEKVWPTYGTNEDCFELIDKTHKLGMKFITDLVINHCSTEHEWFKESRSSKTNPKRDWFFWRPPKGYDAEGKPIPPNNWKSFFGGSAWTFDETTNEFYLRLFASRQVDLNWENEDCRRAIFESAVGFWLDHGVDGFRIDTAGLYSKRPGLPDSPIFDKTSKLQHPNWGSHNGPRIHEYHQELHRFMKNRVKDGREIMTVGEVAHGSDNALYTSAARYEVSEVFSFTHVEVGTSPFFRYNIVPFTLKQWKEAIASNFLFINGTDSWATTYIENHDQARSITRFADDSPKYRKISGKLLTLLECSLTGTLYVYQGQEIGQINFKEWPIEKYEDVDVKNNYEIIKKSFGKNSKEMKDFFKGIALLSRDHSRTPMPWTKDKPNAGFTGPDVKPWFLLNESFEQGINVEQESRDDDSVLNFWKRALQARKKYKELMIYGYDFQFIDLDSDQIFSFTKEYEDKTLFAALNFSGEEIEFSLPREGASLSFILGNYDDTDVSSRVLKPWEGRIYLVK
compound,measurement,setting,value
"O=[N+]([O-])c1cc(Cn2c(-c3ccc(Cl)c([N+](=O)[O-])c3)nc3ccccc32)ccc1Cl [3k, 1-(4-Chloro-3-nitrobenzyl)-2-(4-chloro-3-nitrophenyl)-1H-benzo[d]imidazole]",Effect on IDE activity,[1],actively stimulate IDE activity
same,Effect on IDE activity,[1]; listed as IV,improves the activity of insulin-degrading enzyme (IDE)
"Cc1cccc2c1nc(-c1ccc(Cl)c([N+](=O)[O-])c1)n2Cc1ccc(Cl)c([N+](=O)[O-])c1 [8k, 1-(4-Chloro-3-nitrobenzyl)-2-(4-chloro-3-nitrophenyl)-4-methyl-1H-benzo[d]imidazole]",ABTS EC50,[2],no detectable antioxidant activity
same,Cytotoxicity / effect on Caco-2 cell viability,Caco-2 cells,none of these compounds affected Caco-2 cell viability; also recorded: no cytotoxic effects
same,DPPH EC50,[3],no detectable antioxidant activity
same,IC50,α-glucosidase,7.1 µM
same,inhibition at 50 µM,"α-glucosidase; pH 6.8, read-out: α-Glucosidase % inib. at 50 μM",71.2%
"Cc1cccc2c1nc(-c1cc(O)ccc1O)n2Cc1cc(O)ccc1O [8r, 2-(1-(2,5-Dihydroxybenzyl)-4-methyl-1H-benzo[d]imidazol-2-yl)benzene-1,4-diol]",EC50,[2],13 ± 0.2 µM
same,Cytotoxicity / effect on Caco-2 cell viability,Caco-2 cells,none of these compounds affected Caco-2 cell viability; also recorded: no cytotoxic effects
same,EC50,[3],11.4 ± 1.2 µM
same,IC50,α-glucosidase; [5],13.8 ± 2.7 µM
"Cc1cccc2c1nc(-c1cc(O)c(O)c(O)c1)n2Cc1cc(O)c(O)c(O)c1 [8s, 5-(4-Methyl-1-(3,4,5-trihydroxybenzyl)-1H-benzo[d]imidazol-2-yl)benzene-1,2,3-triol]",EC50,[2],4.6 ± 0.2 µM
same,Cytotoxicity / effect on Caco-2 cell viability,Caco-2 cells,none of these compounds affected Caco-2 cell viability; also recorded: no cytotoxic effects
same,EC50,[3],7.4 ± 0.2 µM
same,inhibition at 50 µM,α-glucosidase; [6],97.5%
same,IC50,α-glucosidase; [5],0.39 ± 0.04 µM
O=[N+]([O-])c1cc(Cn2c(-c3ccc(Cl)c([N+](=O)[O-])c3)nc3ccccc32)ccc1Cl [C00031],inhibition at 50 µM,[4],10.2 ± 6.41%
same,inhibition at 50 µM,α-glucosidase; [6],9.2 ± 1.6%
Cc1cccc2c1nc(-c1ccc(Cl)c([N+](=O)[O-])c1)n2Cc1ccc(Cl)c([N+](=O)[O-])c1 [C00032],inhibition at 50 µM,[4],14 ± 0.15%
same,α-Glucosidase % inib. at 50 μM,α-glucosidase; [7],71.2 ± 11.4%
O=[N+]([O-])c1cc(Cn2c(-c3ccc(Cl)c([N+](=O)[O-])c3)nc3cc(Cl)ccc32)ccc1Cl [C00033],inhibition at 50 µM,[4],15.8 ± 0.5%
same,inhibition at 50 µM,α-glucosidase; [6],17.3 ± 0.4%
COc1ccccc1Cn1c(-c2ccccc2OC)nc2c(C)cccc21 [C00034],inhibition at 50 µM,[4],3.2 ± 2.3%
same,inhibition at 50 µM,α-glucosidase; [6],35.3 ± 6.8%
Cc1cccc2c1nc(-c1ccc(O)c([N+](=O)[O-])c1)n2Cc1ccc(O)c([N+](=O)[O-])c1 [C00035],inhibition at 50 µM,[4],4.3 ± 2.1%
same,inhibition at 50 µM,α-glucosidase; [6],3.7 ± 1.4%
Cc1cccc2c1nc(-c1ccc(Br)c(Br)c1)n2Cc1ccc(Br)c(Br)c1 [C00036],inhibition at 50 µM,[4],35.7 ± 3%
same,inhibition at 50 µM,α-glucosidase; [6],38.2 ± 7.4%
Cc1cccc2c1nc(-c1cc(O)ccc1O)n2Cc1cc(O)ccc1O [C00037],inhibition at 50 µM,[4],1.3 ± 0.3%
same,inhibition at 50 µM,α-glucosidase; [6],94.2 ± 2.8%
Cc1cccc2c1nc(-c1cc(O)c(O)c(O)c1)n2Cc1cc(O)c(O)c(O)c1 [C00038],α-Glucosidase % inib. at 50 μM,α-glucosidase; [7],97.5 ± 0.5%
Cc1cccc2c1nc(-c1ccc(Cl)c([N+](=O)[O-])c1)n2Cc1ccc(Cl)c([N+](=O)[O-])c1 [C00039],IC50,"α-glucosidase; read-out: α-Glucosidase IC50, mean ± SD, three independent assays",7.1 ± 2.1 µM
Cc1cccc2c1nc(-c1cc(O)c(O)c(O)c1)n2Cc1cc(O)c(O)c(O)c1 [C00041],IC50,α-glucosidase; [5],0.39 ± 0.04 µM
O=[N+]([O-])c1ccc2c(c1)nc(-c1cc(Br)ccc1O)n2Cc1cc(Br)ccc1O [III],hPreP agonism,hPreP,potent hPreP agonist
Oc1ccc(Br)cc1Cn1c(-c2cc(Br)ccc2O)nc2ccccc21 [II],Antibacterial activity,B. cereus,particularly active
same,Antibacterial activity,S. dysenteriae,particularly active
same,Antibacterial activity,V. cholerae,particularly active
c1ccc(Cn2c(-c3ccccc3)nc3ccccc32)cc1 [I],Antibacterial activity,B. cereus,particularly active
same,Antibacterial activity,S. dysenteriae,particularly active
same,Antibacterial activity,V. cholerae,particularly active
"Cc1c(C)c2c(c(C)c1O)CCC(C)(C(=O)O)O2 (stereo not drawn) [Trolox, reference compound]",EC50,[2],24.4 ± 0.2 µM
same,EC50,[3],25.3 ± 0.9 µM

# — publication PMC12567066, “Sustainable Synthesis of 1,2-Disubstituted Benzimidazoles as Promising α-Glucosidase Inhibitors: In Vitro and In Silico Evaluation” (Pharmaceuticals, 2025)
